The results in this text go back to ChEMBL document CHEMBL3400135, “Design, synthesis and biological evaluation of novel homocamptothecin analogues as potent antitumor agents” (Bioorg Med Chem, 2015).

A short description of data set [1]: Stability in human plasma assessed as lactone moieties level at 1 uM incubated at 37 degC after 3 hrs by HPLC method. In kind it is ADME, cell-free. Particulars: read-out: Stability.
Data set [2] concerns HT-29. Kind of data set: Cytotoxicity against human HT-29 cells after 72 hrs by sulforhodamine B assay. In kind it is functional, cell-based.
A short description of data set [3]: Cytotoxicity against human HCT116 cells after 72 hrs by sulforhodamine B assay. Format: functional, cell-based, HCT-116.
In data set [4] the test system is HT-29. The data set is described as follows: Antitumor activity against human HT-29 cells xenografted in mouse assessed as tumor volume at 3 mg/kg, iv dosed three times per week to the end of treatment measured on day 3 (reference value: 168 +/- 46 mm3). Format: functional.
In data set [5] the test system is HT-29. The data set is described as follows: Antitumor activity against human HT-29 cells xenografted in mouse assessed as tumor volume at 0.5 mg/kg, iv dosed three times per week to the end of treatment measured on day 14 (reference value: 677 +/- 115 mm3). In kind it is functional.
Data set [6] deals with HT-29. The data set is described as follows: Antitumor activity against human HT-29 cells xenografted in mouse assessed as tumor volume at 3 mg/kg, iv dosed three times per week to the end of treatment measured on day 14 (reference value: 677 +/- 115 mm3). Format: functional.
The subject of data set [7] is HT-29. The data set is described as follows: Antitumor activity against human HT-29 cells xenografted in mouse assessed as tumor volume at 3 mg/kg, iv dosed three times per week to the end of treatment measured on day 17 (reference value: 807 +/- 197 mm3). In kind it is functional.
The test system of data set [8] is Mus musculus. Kind of data set: Toxicity in human HT-29 cells xenografted mouse assessed as induction of anaphylactic reaction at 3 mg/kg, iv dosed three times per week to the end of treatment. Format: organism-based. Also noted: dose 3 mg/kg, route intravenous. Particulars: in vivo.
In data set [9] the test system is Mus musculus. Kind of data set: Toxicity in human HT-29 cells xenografted mouse assessed as body weight level at 0.5 mg/kg, iv dosed three times per week to the end of treatment measured on day 10 (reference value: 22.4 +/- 1.3 g). In kind it is organism-based. On the set-up: dose 0.5 mg/kg, route intravenous. Particulars: in vivo.
Data set [10] relates to HT-29. The data set is described as follows: Antitumor activity against human HT-29 cells xenografted in mouse assessed as tumor volume at 0.5 mg/kg, iv dosed three times per week to the end of treatment measured on day 7 (reference value: 229 +/- 57 mm3). Format: functional.
Data set [11] concerns Mus musculus. Kind of data set: Toxicity in human HT-29 cells xenografted mouse assessed as induction of overt toxic symptoms at 3 mg/kg, iv dosed three times per week to the end of treatment. In kind it is organism-based. Particulars: in vivo. Also noted: dose 3 mg/kg, route intravenous.
Data set [12] deals with Mus musculus. The data set is described as follows: Toxicity in human HT-29 cells xenografted mouse assessed as body weight level at 3 mg/kg, iv dosed three times per week to the end of treatment measured on day 7 (reference value: 21.7 +/- 1 g). In kind it is organism-based. On the set-up: dose 3 mg/kg, route intravenous. The note with it: in vivo.
Data set [13] relates to Mus musculus. Kind of data set: Toxicity in human HT-29 cells xenografted mouse assessed as body weight level at 0.5 mg/kg, iv dosed three times per week to the end of treatment measured on day 7 (reference value: 21.7 +/- 1 g). In kind it is organism-based. On the set-up: dose 0.5 mg/kg, route intravenous. Particulars: in vivo.
Data set [14] deals with HT-29. The data set is described as follows: Antitumor activity against human HT-29 cells xenografted in mouse assessed as tumor volume at 3 mg/kg, iv dosed three times per week to the end of treatment measured on day 7 (reference value: 229 +/- 57 mm3). In kind it is functional.
The subject of data set [15] is HT-29. Kind of data set: Antitumor activity against human HT-29 cells xenografted in mouse assessed as tumor volume at 0.5 mg/kg, iv dosed three times per week to the end of treatment measured on day 17 (reference value: 807 +/- 197 mm3). Format: functional.
Data set [16] deals with Mus musculus. Kind of data set: Toxicity in human HT-29 cells xenografted mouse assessed as body weight change at 3 mg/kg, iv dosed three times per week to the end of treatment (reference value: 12.7%). Particulars: in vivo. On the set-up: dose 3 mg/kg, route intravenous. In kind it is organism-based.
For data set [17], the system named is Mus musculus. The data set is described as follows: Toxicity in human HT-29 cells xenografted mouse assessed as body weight level at 3 mg/kg, iv dosed three times per week to the end of treatment measured on day 3 (reference value: 20.7 +/- 1.2 g). In kind it is organism-based. On the set-up: dose 3 mg/kg, route intravenous. Particulars: in vivo.
Data set [18] has as its system Mus musculus. The data set is described as follows: Toxicity in human HT-29 cells xenografted mouse assessed as lethal toxicity at 3 mg/kg, iv dosed three times per week to the end of treatment. Particulars: in vivo. Also noted: dose 3 mg/kg, route intravenous. In kind it is organism-based.
The test system of data set [19] is Mus musculus. Kind of data set: Toxicity in human HT-29 cells xenografted mouse assessed as induction of overt toxic symptoms at 0.5 mg/kg, iv dosed three times per week to the end of treatment. Format: organism-based. Also noted: dose 0.5 mg/kg, route intravenous. The note with it: in vivo.
The subject of data set [20] is HT-29. Kind of data set: Antitumor activity against human HT-29 cells xenografted in mouse assessed as tumor volume at 0.5 mg/kg, iv dosed three times per week to the end of treatment measured on day 21 (reference value: 1272+/- 273 mm3). Format: functional.
The test system of data set [21] is Mus musculus. Kind of data set: Toxicity in human HT-29 cells xenografted mouse assessed as induction of anaphylactic reaction at 0.5 mg/kg, iv dosed three times per week to the end of treatment. Particulars: in vivo. Also noted: dose 0.5 mg/kg, route intravenous. In kind it is organism-based.
The subject of data set [22] is Mus musculus. Kind of data set: Toxicity in human HT-29 cells xenografted mouse assessed as body weight level at 3 mg/kg, iv dosed three times per week to the end of treatment measured on day 17 (reference value: 22 +/- 1.7 g). Format: organism-based. The note with it: in vivo. On the set-up: dose 3 mg/kg, route intravenous.
Data set [23] has as its system Mus musculus. Kind of data set: Toxicity in human HT-29 cells xenografted mouse assessed as body weight level at 0.5 mg/kg, iv dosed three times per week to the end of treatment measured on day 17 (reference value: 22 +/- 1.7 g). On the set-up: dose 0.5 mg/kg, route intravenous. In kind it is organism-based. The note with it: in vivo.
The test system of data set [24] is HT-29. The data set is described as follows: Antitumor activity against human HT-29 cells xenografted in mouse assessed as relative tumor increment rate at 0.5 mg/kg, iv dosed three times per week to the end of treatment relative to untreated control. Format: functional.
Data set [25] deals with HCT-116. Kind of data set: Potency index, ratio of IC50 for SN38 to IC50 for compound against human HCT116 cells after 72 hrs by sulforhodamine B assay. Format: functional.
Data set [26] relates to HT-29. The data set is described as follows: Antitumor activity against human HT-29 cells xenografted in mouse assessed as relative tumor increment rate at 3 mg/kg, iv dosed three times per week to the end of treatment relative to untreated control. In kind it is functional.
Data set [27] has as its system Mus musculus. The data set is described as follows: Toxicity in human HT-29 cells xenografted mouse assessed as body weight level at 3 mg/kg, iv dosed three times per week to the end of treatment measured on day 14 (reference value: 22.7 +/- 1.5 g). In kind it is organism-based. Also noted: dose 3 mg/kg, route intravenous. The note with it: in vivo.
Data set [28] is described as follows: Stability in pH 7.4 PBS buffer assessed as formation of carboxylate forms at 1 uM incubated at 37 degC by HPLC method. Particulars: pH 7.4, 1 µM. In kind it is physicochemical.
Data set [29] in a line: Solubility in water. In kind it is physicochemical.
Data set [30] has as its system Mus musculus. The data set is described as follows: Toxicity in human HT-29 cells xenografted mouse assessed as lethal toxicity at 0.5 mg/kg, iv dosed three times per week to the end of treatment. In kind it is organism-based. Also noted: dose 0.5 mg/kg, route intravenous. Particulars: in vivo.
Data set [31] concerns Mus musculus. Kind of data set: Toxicity in human HT-29 cells xenografted mouse assessed as body weight level at 3 mg/kg, iv dosed three times per week to the end of treatment measured on day 21 (reference value: 21.2 +/- 1.6 g). In kind it is organism-based. On the set-up: dose 3 mg/kg, route intravenous. The note with it: in vivo.
Data set [32] relates to HT-29. The data set is described as follows: Antitumor activity against human HT-29 cells xenografted in mouse assessed as tumor volume at 3 mg/kg, iv dosed three times per week to the end of treatment measured on day 10 (reference value: 386 +/- 77 mm3). Format: functional.
Data set [33] deals with Mus musculus. The data set is described as follows: Toxicity in human HT-29 cells xenografted mouse assessed as body weight level at 0.5 mg/kg, iv dosed three times per week to the end of treatment measured on day 14 (reference value: 22.7 +/- 1.5 g). On the set-up: dose 0.5 mg/kg, route intravenous. Particulars: in vivo. In kind it is organism-based.
Data set [34] concerns Mus musculus. Kind of data set: Toxicity in human HT-29 cells xenografted mouse assessed as body weight level at 0.5 mg/kg, iv dosed three times per week to the end of treatment measured on day 21 (reference value: 21.2 +/- 1.6 g). In kind it is organism-based. On the set-up: dose 0.5 mg/kg, route intravenous. The note with it: in vivo.
Data set [35] concerns HT-29. The data set is described as follows: Antitumor activity against human HT-29 cells xenografted in mouse assessed as tumor volume at 3 mg/kg, iv dosed three times per week to the end of treatment measured on day 21 (reference value: 1272+/- 273 mm3). Format: functional.
The subject of data set [36] is HT-29. Kind of data set: Antitumor activity against human HT-29 cells xenografted in mouse assessed as tumor volume at 0.5 mg/kg, iv dosed three times per week to the end of treatment measured on day 3 (reference value: 168 +/- 46 mm3). In kind it is functional.
The test system of data set [37] is HT-29. The data set is described as follows: Antitumor activity against human HT-29 cells xenografted in mouse assessed as tumor volume at 0.5 mg/kg, iv dosed three times per week to the end of treatment measured on day 10 (reference value: 386 +/- 77 mm3). Format: functional.
Data set [38] has as its system Mus musculus. Kind of data set: Toxicity in human HT-29 cells xenografted mouse assessed as body weight level at 0.5 mg/kg, iv dosed three times per week to the end of treatment measured on day 3 (reference value: 20.7 +/- 1.2 g). Also noted: dose 0.5 mg/kg, route intravenous. The note with it: in vivo. In kind it is organism-based.
Data set [39] relates to Mus musculus. The data set is described as follows: Toxicity in human HT-29 cells xenografted mouse assessed as body weight level at 3 mg/kg, iv dosed three times per week to the end of treatment measured on day 10 (reference value: 22.4 +/- 1.3 g). In kind it is organism-based. The note with it: in vivo. Also noted: dose 3 mg/kg, route intravenous.

Consider `CCc1c2c(nc3ccc(O)cc13)-c1cc3c(c(=O)n1C2)COC(=O)[C@]3(O)CC` [7-ETHYL-10-HYDROXYCAMPTOTHECIN], for which the remaining at 3 h, 1 µM in [1] was found to be 20%. In addition, the IC50 in data set [2] (Homo sapiens, HT-29, 72 h) stood at 18.5 nM; in [3] (Homo sapiens, HCT-116, 72 h), 4.28 nM.

Turning to `CC[C@]1(O)c2cc3n(c(=O)c2COC(=O)[C@H]1OC)Cc1c-3nc2cc3c(cc2c1-c1ccncc1)OCO3.Cl`, the Activity in data set [4] was 124 mm3; in [5], 327 mm3; in data set [6], 51 mm3; in data set [7], 15 mm3; in data set [8], “Non-toxic”; in [9] it was 22 g. The Activity in data set [10] is reported as 187 mm3; in data set [11], “Non-toxic”; in data set [12], 18.6 g; in data set [13], 21.4 g; in data set [14] it was 93 mm3; in data set [15] it was 380 mm3. Moreover, the Activity is given as -2.6% in data set [16]; 19.8 g in data set [17]; “Non-toxic” in data set [18]; “Non-toxic” in [19]; 550 mm3 in [20]; “Non-toxic” in data set [21]. The Activity in data set [22] was 18.4 g; in data set [23] it was 22.2 g; in [27] it was 18.1 g; in [30] it was “Non-toxic”; in [31], 18.7 g; in data set [32] it was 52 mm3. The Activity is listed as 22.5 g in [33]; 21.3 g in [34]; 0 mm3 in data set [35]; 156 mm3 in data set [36]; 262 mm3 in [37]; 20.5 g in data set [38]. Also, the Activity in data set [39] is reported as 16.8 g. The remaining at 3 h, 1 µM in data set [1] came to 55%. Besides, the IC50 in [2] (ht-29) amounted to 3.41 nM; in [3] (hct-116) it was 0.628 nM. The T/C in data set [24] is reported as 42.84%; in [26], 0%. In addition, in data set [25], the “Ratio IC50” value worked out at 20. Further, the Stability result in data set [28] is recorded as “Stable”. Further, the solubility in [29] amounted to 1200 µg/mL.
